The source made the active and inactive calls.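 How the source made its calls: active means compounds whose fitted half-maximal concentration in the cell-protection dose series is at or below a set limit; inactive means the rest.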
The compounds below were run on H9c2 cardiomyocytes, 2-deoxyglucose stress, ATP luminescence, 2 h (assay: protection of cardiomyocytes from 2-deoxyglucose injury, dose response, cell-based, 2-deoxyglucose stress, uHTS hits (AID 588780)).

SMILES	IC50
O=C(CC(C(=O)c1ccccc1)c1ccccc1)c1ccccc1 (stereo not drawn)	12.6 µM
O=C(Nc1nc(-c2ccccn2)cs1)c1ccc(-c2ccccc2F)o1	> 79 µM (inactive)
C=CCc1ccccc1OCC(=O)N/N=C/c1ccc(OC(C)=O)cc1OC(C)=O	> 79 µM (inactive)
Cc1cc(C)c(OCC(=O)Nc2nc(-c3ccccn3)cs2)c(C)c1	> 79 µM (inactive)
CCOC(=O)N1CCC(n2c(SCC(=O)N3CCC(C)CC3)nc3ccccc3c2=O)CC1	> 79 µM (inactive)
Cc1ccc(-c2n[nH]c(=O)c3ccccc23)cc1S(=O)(=O)NCCO	39.8 µM (inactive)
O=C(Nc1nc(-c2ccccn2)cs1)c1cc(S(=O)(=O)N2CCOCC2)ccc1F	> 79 µM (inactive)
Cc1ccc(-c2nn3c(-c4ccco4)nnc3c3ccccc23)cc1S(=O)(=O)NCC1CCCO1 (stereo not drawn)	23.3 µM
COc1ccc(-c2nc(NC(=O)c3ccc(OCC(=O)N4CCOCC4)c(OC)c3)sc2C)cc1	> 79 µM (inactive)
CCn1c(=O)c(C(=O)NC(C)c2ccccc2)c(O)c2ccccc21 (stereo not drawn)	> 79 µM (inactive)
Cc1cc(C(=O)N/N=C/c2c(CO)cnc(C)c2O)c2ccccc2n1	> 79 µM (inactive)
O=C(CCc1nc2ccccc2c(=O)[nH]1)NNC(=O)c1ccc(F)cc1	> 79 µM (inactive)
Cc1c(O)c(CN2CCCCC2)cc2c1oc(=O)c1ccccc12	> 79 µM (inactive)
CC(=O)Nc1cc(-c2cccc(C(=O)N(C)C)c2)cn2c(-c3ccc(C(C)=O)cc3)cnc12	15.1 µM
COc1ccc(/C=N\NC(=O)c2c(C)nc3ccc(Br)cn23)cc1	> 79 µM (inactive)
Cc1cc(CNC(=O)COC(=O)Cn2[nH]c(=O)c3ccccc3c2=O)cc(C)c1O	15.4 µM
O=C(Cc1n[nH]c(=O)c2ccccc12)OCC(=O)c1ccccc1	> 79 µM (inactive)
COCCN1Cc2cccc(C(=O)Nc3cccc(-c4nc5ccccc5[nH]4)c3)c2C1=O	> 79 µM (inactive)
O=C(COc1ccc(Cl)cc1)NCc1n[nH]c(=O)c2ccccc12	> 79 µM (inactive)
COC(=O)c1cc2ccccn2c2c(C(=O)OC)c(C(=O)OC)cc1-2	> 79 µM (inactive)
COc1ccc(-c2csc(NC(=O)CCn3cnc4ccccc4c3=O)n2)cc1OC	> 79 µM (inactive)
CCOc1ccc(CCNC(=O)c2cc3c(C)nccc3[nH]c2=O)cc1OCC	12.4 µM
CCN(CC)S(=O)(=O)c1ccc(N2CCOCC2)c(NC(=O)c2cc(-c3ccccn3)nc3ccccc23)c1	> 79 µM (inactive)
O=C(COC(=O)Cc1n[nH]c(=O)c2ccccc12)Nc1ccc(Cl)cn1	> 79 µM (inactive)

SMILES	IC50
COc1cccc(-c2ccc(SCC(=O)N3CCN(c4ccccc4)CC3)nn2)c1	> 79 µM (inactive)
Cc1c(NC(=O)Cn2[nH]c(=O)c3ccccc3c2=O)c(=O)n(-c2ccccc2)n1C	> 79 µM (inactive)
CCCNC(=O)c1ccc(N2CCC3(CC2)CC(c2ccccc2)=NO3)c(NC(=O)c2ccco2)c1	> 79 µM (inactive)
COc1ccc(NCc2cc3ccccc3[nH]c2=O)cc1	> 79 µM (inactive)
COc1ccc(OC)c(/C=N/NC(=O)c2cc3c(OC)c(OC)ccc3[nH]2)c1	> 79 µM (inactive)
COc1cc(OC)cc(-c2cc3nc(C)c(CCC(=O)Nc4nc(C)cs4)c(C)n3n2)c1	> 79 µM (inactive)
O=C(COc1ccccc1F)Nc1nc(-c2ccccn2)cs1	> 79 µM (inactive)
Cc1[nH]c2ccccc2c1C(=O)CSc1nc2ccccc2[nH]1	> 79 µM (inactive)
CCC1(C)Cc2c(sc3nc(NN)n(C)c(=O)c23)CO1 (stereo not drawn)	> 79 µM (inactive)
COc1cccc(Nc2nc3ccccc3n3nnnc23)c1	14.6 µM
Cc1cccc(NC(=O)c2nc[nH]c2C(=O)NCCCNC(=O)c2[nH]cnc2C(=O)Nc2cccc(C)c2)c1	31.6 µM (inactive)
Nc1ccc(-c2n[nH]c(=O)c3ccccc23)cc1N	> 79 µM (inactive)
Cc1sc2nc(SCC(=O)N(C)C)[nH]c(=O)c2c1C	> 79 µM (inactive)
C[C@H](NC(=O)c1nc[nH]c1C(=O)NCC(=O)OCc1ccccc1)c1ccccc1	13.6 µM
O=C(COC(=O)Cc1n[nH]c(=O)c2ccccc12)Nc1c(Br)cc([N+](=O)[O-])cc1Br	> 79 µM (inactive)
CCOC(=O)c1cc(-c2nnc(-c3cc(OC)c(OC)c(OC)c3)o2)c(C)nc1C	> 79 µM (inactive)
CC(=O)c1ccc(C(=O)Nc2nnc(-c3ccc(Cl)cc3)o2)cc1	15.7 µM
CCOCc1c(C(=O)NC2=Nc3ccccc3NC(CC)=C2C(=O)OCC)oc2ccccc12	> 79 µM (inactive)
C[C@@H]1CN([C@@H](C)CO)C(=O)c2cc(NC(=O)Nc3ccccc3)ccc2O[C@H]1CN(C)C(=O)Nc1cccc2ccccc12	15.8 µM
Cc1cnc(C=O)c2cccc([N+](=O)[O-])c12	44.6 µM (inactive)
CCOc1ccccc1C(=O)N/N=C/c1cccc2cccnc12	> 79 µM (inactive)
O=C(N/N=C/c1cccc(O)c1)c1cc(-c2ccc3c(c2)OCO3)n[nH]1	> 79 µM (inactive)
Cc1ccc(NC(=O)c2nc[nH]c2C(=O)NCCCCCCNC(=O)c2[nH]cnc2C(=O)Nc2ccc(C)cc2)cc1	> 79 µM (inactive)
O=C(CSc1nc2ccccc2c(=O)[nH]1)c1ccc(O)cc1O	33.1 µM (inactive)

SMILES	IC50
CC(=O)Nc1ccc(S(=O)(=O)N(Cc2cccnc2)Cc2cc3ccccc3[nH]c2=O)cc1	> 79 µM (inactive)
Cc1ccc(-n2cc(-c3ccccc3)c3c(N4CCOCC4)ncnc32)cc1	> 79 µM (inactive)
COc1ccccc1NS(=O)(=O)c1cc(NC(=O)Cc2n[nH]c(=O)c3ccccc23)ccc1Cl	24.5 µM
COc1cccc(Nc2nc3ccccc3n3cnnc23)c1	12.5 µM
N/C(=N\NS(=O)(=O)c1ccccc1)c1ccccn1	> 79 µM (inactive)
C=CC[C@@H](CC(=O)N[C@H](CO)Cc1ccccc1)C(=O)N[C@@H](COC(=O)[C@@H](CC=C)CC(=O)OC(C)(C)C)Cc1ccccc1	17.5 µM
CCOC(=O)N1CCN(C(=O)CSc2nc3ccccc3c(=O)n2-c2ccccc2)CC1	33.6 µM (inactive)
CC1CCCC(C)N1C(=O)COC(=O)c1n[nH]c(=O)c2ccccc12 (stereo not drawn)	> 79 µM (inactive)
CCCCCn1nc(C(=O)OCC(=O)c2c(N)n(C)c(=O)n(C)c2=O)c2ccccc2c1=O	20.1 µM
CCCCCCSc1ccc([C@H]2N[C@@](Cc3ccccc3)(C(=O)OC)[C@H]3C(=O)N(C)C(=O)[C@@H]23)cc1	> 79 µM (inactive)
Cc1c(C=O)c2ccccn2c1C(=O)c1ccc(Cl)c([N+](=O)[O-])c1	> 79 µM (inactive)
COc1ccc(Cl)cc1NC(=O)CN(C)C(=O)CCc1nc2ccccc2c(=O)[nH]1	> 79 µM (inactive)
O=C(COc1cccc(F)c1)Nc1nc(-c2ccccn2)cs1	30.9 µM (inactive)
CCOC(=O)c1ccc(-c2ccc(C3Nc4ccccc4C(=O)N3O)o2)cc1 (stereo not drawn)	20.4 µM
Cc1cccc(NC(=O)c2nc[nH]c2C(=O)NCCCCCCNC(=O)c2[nH]cnc2C(=O)Nc2cccc(C)c2)c1	> 79 µM (inactive)
C[C@H]1Cn2cnc(C(=O)N[C@@H](Cc3c[nH]c4ccccc34)C(=O)OC(C)(C)C)c2C(=O)N1	21 µM
CCCc1nc2ccccc2c(C(=O)OCc2nnc(-c3cc(OC)c(OC)c(OC)c3)o2)c1CC	11 µM
O=C1Nc2ccccc2C(=O)C1(Cl)Cc1ccccc1 (stereo not drawn)	> 79 µM (inactive)
O=C1N[C@H]2CC=C[C@H]2Nc2ccccc21	> 79 µM (inactive)
O=C(CCc1nc2ccccc2c(=O)[nH]1)N1CCN(S(=O)(=O)c2cccc(F)c2)CC1	> 79 µM (inactive)
COc1cccc(-c2nn(-c3ccccc3)cc2C(=O)Nc2nccs2)c1	> 79 µM (inactive)
COc1ccccc1NC(=O)c1cc(-c2cc(OC)c(OC)c(OC)c2)nc2ccccc12	> 79 µM (inactive)
C/C(=N\NC(=O)CCCNc1ccc(C)cc1)c1ccccn1	> 79 µM (inactive)
COc1cccc(CN2CCN(C(=O)c3cc(-c4cccnc4)nc4ccc(C)cc34)CC2)c1	22.4 µM

SMILES	IC50
CC1(C)CC2CC(C)(CN2C(=O)COC(=O)Cn2[nH]c(=O)c3ccccc3c2=O)C1 (stereo not drawn)	> 79 µM (inactive)
O=C1OCCN1C(=O)[C@H]1[C@H](c2ccc([N+](=O)[O-])cc2)C(c2cccc(Cl)c2)=NN1c1ccc(Br)cc1	> 79 µM (inactive)
Cc1ccc(-c2csc(N3CCC[C@@H]3C(=O)NCCn3c(-c4ccncc4)nc4ccccc43)n2)cc1	> 79 µM (inactive)
COc1ccc(-c2nnc(-c3cc(OC)c(OC)c(OC)c3)o2)cc1OC	14.6 µM
O=c1[nH]c(-c2cccnc2)nc2ccccc12	> 79 µM (inactive)
C/C(=N\NC(=O)c1nnn(-c2nonc2N)c1CSc1ccc(C)cc1)c1cccnc1	> 79 µM (inactive)
Cc1cc(N)n(-c2nc(-c3cccnc3)nc3ccccc23)n1	19.8 µM
Cc1ccc2[nH]c(=O)c(CN(CCCN3CCOCC3)C(=O)Nc3ccc(Cl)cc3)cc2c1	> 79 µM (inactive)
Cn1c(=O)c2c(nc(NCCCO)n2C/C=C/c2ccccc2)n(C)c1=O	> 79 µM (inactive)
c1cc2[nH]snc2c2nc(C3CC3)nc12	10.2 µM
CCC(=O)Oc1ccc2c(C)cc(=O)oc2c1C	> 79 µM (inactive)
O=c1[nH]c2ccccc2c2ccccc12	> 79 µM (inactive)
O=c1[nH]nc(Cc2ccc([N+](=O)[O-])cc2)c2ccccc12	29.5 µM
Cc1ccccc1NC(=O)COc1cccc2c1CCNC2=O	> 79 µM (inactive)
O=c1[nH]c2cccnc2c2ccsc12	> 79 µM (inactive)
C[C@H](CO)N1C[C@H](C)[C@@H](CN(C)C(=O)Nc2ccc3c(c2)OCO3)Oc2c(NC(=O)Nc3ccc(C(F)(F)F)cc3)cccc2C1=O	> 79 µM (inactive)
O=C(c1ccc(-c2nc3ccccc3s2)o1)N1CCN(c2ccccc2O)CC1	12.3 µM
C[C@@H](OC(=O)c1[nH]cnc1C(=O)NCc1ccc(CNC(=O)OC(C)(C)C)cc1)c1ccccc1	> 79 µM (inactive)
CC(OC(=O)Cc1n[nH]c(=O)c2ccccc12)C(=O)Nc1ccc(F)cc1 (stereo not drawn)	> 79 µM (inactive)
NC(=O)c1cccc(Nc2nc(C(N)COCc3ccccc3)cs2)n1 (stereo not drawn)	> 79 µM (inactive)
O=C(c1ccccc1)c1ccc2nc(N3CCN(C(=O)c4ccco4)CC3)c3nncn3c2c1	14.9 µM
